US20240270821A1, “GIP/GLP1/GCG TRI-RECEPTOR AGONISTS AND USES THEREOF” (priority 2023, published 2024)
Starred links: 1 amine or outer side, 2 acyl side, 3 side chain; linkers in the order of their positions; H or OH if unused. Non-standard residues stand in square brackets, D forms with d. Groups on a side chain read outwards from the residue. *: point of attachment. C18 diacid = O=C(O)CCCCCCCCCCCCCCCCC(=O)*; γGlu = O=C(O)[C@H](CCC(=O)[*:2])N[*:1]; 4Pal = N[C@@H](Cc1ccncc1)C(=O)O; αMeL = CC(C)C[C@](C)(N)C(=O)O; Orn = NCCC[C@H](N)C(=O)O; AEEA = NCCOCCOCC(=O)O; Aib = CC(C)(N)C(=O)O

What was measured:
Assay type in all cases: cell-based
[1] = target: T1, hGIPR (Homo sapiens, UniProt P48546); test: Functional cAMP activity in the presence of 1% HSA; details: read-out: cAMP Rel EC50, hGIPR
T1 sequence (P48546 22-466): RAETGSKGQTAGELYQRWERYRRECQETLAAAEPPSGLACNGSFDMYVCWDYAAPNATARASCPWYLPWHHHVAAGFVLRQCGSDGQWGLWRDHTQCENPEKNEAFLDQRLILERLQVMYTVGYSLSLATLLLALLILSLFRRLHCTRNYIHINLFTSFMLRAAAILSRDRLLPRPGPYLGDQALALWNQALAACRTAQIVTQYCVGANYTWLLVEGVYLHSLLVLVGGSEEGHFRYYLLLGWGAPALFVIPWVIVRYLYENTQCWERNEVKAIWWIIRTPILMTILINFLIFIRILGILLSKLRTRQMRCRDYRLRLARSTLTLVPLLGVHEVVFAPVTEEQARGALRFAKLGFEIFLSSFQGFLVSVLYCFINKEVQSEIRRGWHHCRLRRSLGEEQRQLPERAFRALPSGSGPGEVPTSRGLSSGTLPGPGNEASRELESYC

[2] = target: T2, hGLP-1R (Homo sapiens, UniProt P43220); test: Functional cAMP activity in the presence of 1% HSA; details: read-out: cAMP Rel EC50, hGLP-1R
[3] = target: human GcgR (Homo sapiens, UniProt P47871); test: Functional cAMP activity in the presence of 1% HSA; details: read-out: cAMP Rel EC50, hGcgR
[4] = target: T1, hGIPR; test: Functional cAMP activation in the presence of 0.1% casein (no HSA); details: in the presence of 0.1% casein (no HSA); geometric mean; read-out: Relative cAMP EC50, hGIPR;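 on Relative cAMP EC50, hGIPR: intracellular cAMP rise after 30 min at 37 °C read by HTRF against a standard curve, scaled between buffer alone (0%) and top control ligand concentration (100%), four-parameter fit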;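 on Relative cAMP EC50, hGLP-1R: intracellular cAMP rise after 30 min at 37 °C read by HTRF, normalized between buffer only (0%) and maximal control ligand (100%), four-parameter variable-slope fit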;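 on Relative cAMP EC50, hGcgR: intracellular cAMP rise after 30 min at 37 °C, read by HTRF against a cAMP standard curve, scaled from buffer only (0%) to maximal control ligand response (100%)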
[5] = target: T2, hGLP-1R; test: as above; details: in the presence of 0.1% casein (no HSA); geometric mean; read-out: Relative cAMP EC50, hGLP-1R
[6] = target: hGcgR (Homo sapiens, UniProt P47871); test: as above; details: in the presence of 0.1% casein (no HSA); geometric mean; read-out: Relative cAMP EC50, hGcgR;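 further: intracellular cAMP rise after 30 min at 37 °C, read by HTRF against a cAMP standard curve, scaled from buffer only (0%) to maximal control ligand response (100%)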
Chain of hGcgR (P47871 26-477): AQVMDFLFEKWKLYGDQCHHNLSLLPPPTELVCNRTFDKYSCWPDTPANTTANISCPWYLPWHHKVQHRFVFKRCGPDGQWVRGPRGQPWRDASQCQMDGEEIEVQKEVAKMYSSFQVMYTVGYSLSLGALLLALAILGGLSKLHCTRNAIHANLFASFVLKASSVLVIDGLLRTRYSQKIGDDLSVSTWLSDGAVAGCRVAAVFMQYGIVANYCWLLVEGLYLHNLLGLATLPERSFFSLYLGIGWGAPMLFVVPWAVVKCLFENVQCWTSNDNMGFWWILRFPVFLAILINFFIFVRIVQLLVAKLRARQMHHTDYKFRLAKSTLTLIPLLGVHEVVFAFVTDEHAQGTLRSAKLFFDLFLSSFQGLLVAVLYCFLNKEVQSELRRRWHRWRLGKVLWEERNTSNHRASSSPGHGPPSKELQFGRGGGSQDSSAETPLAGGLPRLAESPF

T2 sequence (P43220 24-463): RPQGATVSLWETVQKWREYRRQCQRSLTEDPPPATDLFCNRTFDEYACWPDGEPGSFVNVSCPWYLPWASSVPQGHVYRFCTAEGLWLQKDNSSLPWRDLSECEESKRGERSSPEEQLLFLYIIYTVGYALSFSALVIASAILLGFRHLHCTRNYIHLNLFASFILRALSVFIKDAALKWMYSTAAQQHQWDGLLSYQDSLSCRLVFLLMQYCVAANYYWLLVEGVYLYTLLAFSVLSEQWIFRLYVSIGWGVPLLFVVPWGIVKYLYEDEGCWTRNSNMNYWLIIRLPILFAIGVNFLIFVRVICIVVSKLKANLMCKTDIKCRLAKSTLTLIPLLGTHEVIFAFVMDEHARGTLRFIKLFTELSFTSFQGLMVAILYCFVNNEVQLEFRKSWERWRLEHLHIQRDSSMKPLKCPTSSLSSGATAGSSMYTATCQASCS
Chain of human GcgR (P47871 26-477): as the sequence (P47871 26-477) above

Substance | EC50 [1] [nM] | EC50 [2] [nM] | EC50 [3] [nM] | EC50 [4] [nM] | EC50 [5] [nM] | EC50 [6] [nM]
H-Y[Aib]QGTFTSDFS[Orn][αMeL]LDKK([AEEA-AEEA-γGlu-C18 diacid])AQ[Aib]AFIEWLLEGGHSSGAPPPGGE-NH2 [Example 271] | 15.7 | 887 | 2680 | 0.152 | 5 | 8.51
H-Y[Aib]QGTFTSDFS[Orn][αMeL]LDKK([AEEA-AEEA-γGlu-C18 diacid])AQ[Aib]AFIEYLLE[Aib]GESSGAPPPSGT-NH2 [Example 180] | 24 | 891 | 1320 | 0.14 | 5.08 | 2.44
H-Y[Aib]QGTFTSDFS[Orn][αMeL]LDKK([AEEA-AEEA-γGlu-C18 diacid])AQ[Aib]AFIEYLLE[Aib]GPSSGAPPPEGS-NH2 [Example 194] | 19.7 | 697 | 813 | 0.212 | 4.69 | 4.32
H-Y[Aib]QGTFTSDFS[Orn][αMeL]LDKK([AEEA-AEEA-γGlu-C18 diacid])AQ[Aib]AFIEYLLE[Aib]GPSSGEPPPEGS-NH2 [Example 195] | 28.8 | 829 | 605 | 0.145 | 6.13 | 3.1
H-Y[Aib]QGTFTSDFS[Orn][αMeL]LDKK([AEEA-AEEA-γGlu-C18 diacid])AQ[Aib]AFIEYLLE[dA]GPSSGEPPPSGT-NH2 [Example 156] | 25.8 | 695 | 1520 | 0.208 | 3.37 | 3.62
H-Y[Aib]QGTFTSDFS[Orn][αMeL]LDKK([AEEA-AEEA-γGlu-C18 diacid])AQ[Aib]AFIEYLLE[dA]GPSSG[4Pal]PPPSGH-NH2 [Example 257] | 21 | 388 | 1210 | 0.135 | 2.66 | 7.36
H-Y[Aib]QGTFTSDFS[Orn][αMeL]LDKK([AEEA-AEEA-γGlu-C18 diacid])AQ[Aib]AFIEYLLE[dA]GPSSG[4Pal]PPPSG[4Pal]-NH2 [Example 258] | 23.3 | 492 | 1280 | 0.154 | 2.71 | 7.15
H-Y[Aib]QGTFTSDFS[Orn][αMeL]LDKK([AEEA-γGlu-C18 diacid])AQ[Aib]AFIEWLLEGGESSGEPPPSGE-NH2 [Example 123] | 94.6 | 1500 | 1740 | 0.531 | 4.82 | 4.55
H-Y[Aib]QGTFTSDFS[Orn][αMeL]LDKK([AEEA-γGlu-C18 diacid])AQ[Aib]AFIEWLLEGGHSSGAPPPSGH-NH2 [Example 269] | 21.9 | 428 | 1100 | 0.288 | 3.23 | 7.69
H-Y[Aib]QGTFTSDFS[Orn][αMeL]LDKK([AEEA-γGlu-C18 diacid])AQ[Aib]AFIEWLLEGGHSSGAPPPSGS-NH2 [Example 170] | 43.5 | 361 | 1800 | 0.401 | 4.11 | 5.29
H-Y[Aib]QGTFTSDFS[Orn][αMeL]LDKK([AEEA-γGlu-C18 diacid])AQ[Aib]AFIEWLLEGGHSSGEPPPEGS-NH2 [Example 127] | 62.9 | 1000 | 1010 | 0.312 | 4.8 | 4.35
H-Y[Aib]QGTFTSDFS[Orn][αMeL]LDKK([AEEA-γGlu-C18 diacid])AQ[Aib]AFIEWLLEGGPSSGAPPPEGE-NH2 [Example 120] | 33.4 | 664 | 1540 | 0.44 | 4.77 | 5.85
H-Y[Aib]QGTFTSDFS[Orn][αMeL]LDKK([AEEA-γGlu-C18 diacid])AQ[Aib]AFIEWLLEGGPSSGAPPPEG[4Pal]-NH2 [Example 262] | 40.4 | 400 | 720 | 0.232 | 4.39 | 9.77
H-Y[Aib]QGTFTSDFS[Orn][αMeL]LDKK([AEEA-γGlu-C18 diacid])AQ[Aib]AFIEWLLEGGSSSGAPPPGGT-NH2 [Example 272] | 36.3 | 486 | 1540 | 0.254 | 2.62 | 7.91
H-Y[Aib]QGTFTSDFS[Orn][αMeL]LDKK([AEEA-γGlu-C18 diacid])AQ[Aib]AFIEWLLEGGSSSGAPPPSGH-NH2 [Example 270] | 36.5 | 658 | 1060 | 0.26 | 3.2 | 5
H-Y[Aib]QGTFTSDFS[Orn][αMeL]LDKK([AEEA-γGlu-C18 diacid])AQ[Aib]AFIEYLIE[Aib]SPSSGAPPPSGS-NH2 [Example 804] | 17.6 | 161 | 2310 | 0.0751 | 0.915 | 11.5
H-Y[Aib]QGTFTSDFS[Orn][αMeL]LDKK([AEEA-γGlu-C18 diacid])AQ[Aib]AFIEYLLAGGPSSGAPPPSGE[AEEA]-NH2 [Example 91] | 23.9 | 356 | 1200 | 0.243 | 3.39 | 9.13
H-Y[Aib]QGTFTSDFS[Orn][αMeL]LDKK([AEEA-γGlu-C18 diacid])AQ[Aib]AFIEYLLAGGPSSGAPPPSGSQ-OH [Example 88] | 24.7 | 363 | 915 | 0.177 | 3.45 | 7.48
H-Y[Aib]QGTFTSDFS[Orn][αMeL]LDKK([AEEA-γGlu-C18 diacid])AQ[Aib]AFIEYLLAGGPSSGAPPPSGS[AEEA]-NH2 [Example 89] | 19.3 | 458 | 916 | 0.167 | 3.31 | 11.6
H-Y[Aib]QGTFTSDFS[Orn][αMeL]LDKK([AEEA-γGlu-C18 diacid])AQ[Aib]AFIEYLLAGGPSSGEPPPEGS-NH2 [Example 152] | 23.2 | 491 | 1090 | 0.259 | 4.03 | 6.91
H-Y[Aib]QGTFTSDFS[Orn][αMeL]LDKK([AEEA-γGlu-C18 diacid])AQ[Aib]AFIEYLLEGGESSGAPPPGGS-NH2 [Example 161] | 87.3 | 963 | 902 | 0.555 | 5.22 | 4.83
H-Y[Aib]QGTFTSDFS[Orn][αMeL]LDKK([AEEA-γGlu-C18 diacid])AQ[Aib]AFIEYLLEGGESSGAPPPSGS-NH2 [Example 145] | 108 | 1480 | 693 | 0.539 | 4.26 | 3.14
H-Y[Aib]QGTFTSDFS[Orn][αMeL]LDKK([AEEA-γGlu-C18 diacid])AQ[Aib]AFIEYLLEGGPSSGAPPPEGT-NH2 [Example 160] | 44.4 | 482 | 479 | 0.354 | 5.39 | 4.32
H-Y[Aib]QGTFTSDFS[Orn][αMeL]LDKK([AEEA-γGlu-C18 diacid])AQ[Aib]AFIEYLLEGGPSSGAPPPGGE-NH2 [Example 63] | 40.4 | 348 | 709 | 0.255 | 4.78 | 4.1
H-Y[Aib]QGTFTSDFS[Orn][αMeL]LDKK([AEEA-γGlu-C18 diacid])AQ[Aib]AFIEYLLEGGPSSGAPPPGGQ-NH2 [Example 159] | 49.7 | 588 | 475 | 0.343 | 4.15 | 6.89
H-Y[Aib]QGTFTSDFS[Orn][αMeL]LDKK([AEEA-γGlu-C18 diacid])AQ[Aib]AFIEYLLEGGPSSGAPPPGGSE-NH2 [Example 65] | 30.2 | 462 | 808 | 0.739 | 4.21 | 6.49
H-Y[Aib]QGTFTSDFS[Orn][αMeL]LDKK([AEEA-γGlu-C18 diacid])AQ[Aib]AFIEYLLEGGPSSGAPPPGGSG-NH2 [Example 64] | 24.9 | 397 | 626 | 0.309 | 4.08 | 4.94
H-Y[Aib]QGTFTSDFS[Orn][αMeL]LDKK([AEEA-γGlu-C18 diacid])AQ[Aib]AFIEYLLEGGPSSGAPPPGG[4Pal]-NH2 [Example 261] | 38.4 | 383 | 520 | 0.29 | 3.12 | 5.49
